Experimental findings from patent US20100041756A1, “METHOD OF MODULATING B CELL FUNCTIONING” (priority 2004, published 2010) are described below.

“And” between values parts separate entries of the source, which are not always exact repeats. Identical values can stand only once.

Test [1] concerns T cells stimulated with anti-CD3/anti-CD28. As to the kind of experiment: Cytokine production by stimulated T cells in vitro (ELISA). The format is cell-based, mouse. The protocol:
FIG. 10 is a graphical representation depicting that 3,4-DAA and 3-HAA inhibit B and T cell proliferation in vitro. Purified B and T cells were stimulated for 72 h with anti-CD40 (a), or anti-CD3/anti-CD28 (b) respectively, in the presence of varying doses of 3,4-DAA, or 3-HAA.
A single cell suspension was prepared from spleen by mincing through a cell strainer, and erythrocytes were lysed using an ammonium chloride solution (Sigma, St Louis, Mo., USA). B cells were positively enriched by using anti-IgM MACS microbeads, and T cells were positively enriched using anti-CD4 MACS microbeads and the MACS system, according to the manufacturer's guidelines (Miltenyi Biotec, Bergisch Gladbach, Germany). Purity was assessed by flow cytometric analysis (B cell>90% CD19+, T cell>90% CD4+). Cells were cultured at 5×10^5 cells/ml in 200 μl complete RPMI, as above, in a flat bottom 96-well plate and cultured for 72 h. B cells were stimulated with anti-CD40 monoclonal antibody (10 μg/ml; BD), and T cells were stimulated with 5 μg/ml plate-bound anti-CD3 (BD), 5 μg/ml soluble anti-CD28 (BD). Tranilast, 3-HAA, or vehicle (DMSO) were incubated at concentrations stated with the cultures. 48 hours after stimulation, 100 μl culture medium was collected, and cells were pulsed with 1 μCi ^3H thymidine per well for 18 h. Cells were then harvested and plates assessed for incorporation. Each assay was performed on a minimum of 3 occasions. Data shown is of one representative experiment, and is expressed as mean+/−SD of triplicate in culture. IFN-γ, IL-10 and IL-5 levels was assessed in the culture medium by ELISA, as above.

A further test deals with IL-10. As to the kind of experiment: Serum IL-10 in mice with established CIA (ELISA). The format is in vivo, mouse. The conditions noted are these: 10 days treatment (FIG. 7). The protocol: Mice with established CIA were treated with 3,4-DAA or vehicle (n=7) for 10 days (see FIG. 6), then bled. IL-10 in the sera was measured by ELISA.
Inguinal lymph nodes were excised from Tranilast-treated and control mice. Alternatively, inguinal lymph nodes were removed from untreated arthritic mice (day 1-5 of arthritis) and Tranilast was added in vitro. In both cases, LNC were cultured in RPMI 1640 containing FCS (10% v/v), 2-mercaptoethanol (20 μM), L-glutamine (1% w/v), penicillin (100 U/ml) and streptomycin (100 μg/ml) in the presence or absence of type II collagen (50 μg/ml). Secreted cytokines (IFN-γ, IL-5, TNFα and IL-10) were measured after 72 h. by ELISA. In brief, 96 well ELISA plates were coated with the respective capture antibody, blocked with bovine serum albumin (2% w/v), and then incubated with LNC culture supernatants (neat) overnight at 4° C. After washing, bound cytokines were detected using biotinylated detect antibodies. A standard curve was generated using known concentrations of the appropriate recombinant cytokine and the concentrations of cytokines present in culture supernatants were estimated by reference to the standard curve.

Test [2] concerns anti-type II collagen IgG1 and IgG2a. As to the kind of experiment: Serum anti-collagen antibody levels in mice with established CIA (ELISA). Type of test: in vivo, mouse. The conditions noted are these: 10 days treatment. On the procedure: ELISA plates (Nunc, Uxbridge, UK) were coated with 2 μg/ml of bovine CII dissolved overnight in Tris Buffer (0.05 M Tris, containing 0.2 M NaCl, pH 7.4) blocked with 2% bovine serum albumin (BSA) and then incubated with serial dilutions of test sera. A reference sample was included on each plate. Bound total IgG, IgG1 or IgG2a was detected by incubation with HRP-conjugated sheep anti-mouse IgG, IgG1 or IgG2a, followed by TMB substrate. Optical density was measured at 450 nm.

The subject of test [3] is anti-type II collagen IgG1. As to the kind of experiment: Inhibition of anti-type II collagen antibody production in vivo (Example 5). Also noted: species or system mouse. On the procedure:
Female DBA/1 mice (10 weeks of age) were immunised intraperitoneally on day 1 with 100 μg bovine type II collagen, dissolved in 0.05M Tris/0.2M NaCl, pH 7.4). Tranilast was dissolved in 1% sodium bicarbonate (10 mg/ml) by heating for 1 h at 70° C. Upon cooling, an emulsion was formed. Tranilast was administered intraperitoneally for three weeks (starting on day 1) at a dose of 400 mg/kg, every 2-3 days. Controls received vehicle alone. There were six mice per group.
On day 28 mice were bled and serum levels of anti-type II collagen IgG1 and IgG2a were measured by ELISA, as follows:
1. Polystyrene microtitre plates (Immulon 2, Dynatech Laboratories) were coated with DEAE-purified bovine type II collagen, dissolved in 0.2M NaCl/0.05M Tris, pH 7.4 (5 μg/ml), overnight at 4° C. 2. The plates were washed in phosphate-buffered saline (PBS), then blocked with BSA in PBS (2% w/v) for 1 h at room temperature. 3. After washing in PBS, containing Tween 20 (0.05% v/v), the sera were serially diluted in PBS/Tween, added to the plates and incubated for 2 h at room temperature. 4. After washing in PBS/Tween, bound IgG was detected by incubating goat anti-mouse IgG1 or anti-mouse IgG2a-HRP conjugate ( 1/1000) for 2 h at room temperature. 5. Develop colour reaction using TMB substrate. Stop reaction with 4.5NH2SO4 6. The plates were read at 450 nm on a microtitre plate reader.

Where [4] appears, read: individual mice, day 28, 400 mg/kg i.p. every 2-3 days for three weeks.

Take `COc1ccc(/C=C/C(=O)Nc2ccccc2C(=O)O)cc1OC` [Tranilast, 2-[[3-(3,4-dimethoxyphenyl)-1-oxo-2-propenyl]amino]benzoic acid]: the “IFN-γ production by T-cells” value in test [1] (FIG. 10C) is listed as “dose-dependently reduced”. Besides, in test [1] (FIG. 10D), the “IL-10 production by T-cells” value was “dose-dependently inhibited”. Also, the “IL-5 production by T-cells” value in test [1] (FIG. 10E) was “dose-dependently inhibited”. Moreover, the results for the “circulating IL-10 levels” value in the test with IL-10 and in the test with IL-10 (listed as 3,4-DAA) were “dose-dependent increase” and “increased IL-10 levels”, respectively. For the same compound, the “levels of anti-type II collagen IgG1 and IgG2a in sera” value in test [2] is recorded as “no differences were observed”. Moreover, in test [3] (group comparison, P=0.03, Mann Whitney test), the “Levels of anti-type II collagen IgG1” value is recorded as “significantly higher in the control group versus the Tranilast treated group”. The “OD450 (dilution 1/100), anti-type II collagen IgG1” value in test [3] (setting [4]) was 0.07 and 0.06 (2×) and 0.31 and 0.08 (2×). Besides, the “Titre (reciprocal), anti-type II collagen IgG1” value in test [3] (setting [4]) was <50 (4×) and <1/50 and 150.
